In patent US6806286B2, “Pyrrolecarboxamides and pyrrolethioamides as fungicides” (Syngenta Crop Protection, Inc., priority 2000, dated 2004):

Key:
Botryts cinerea = experiment: Action against Botryts cinerea/tomato (Botrytis on tomatoes); assay type: in vivo; details: tomato plants cv. Roter Gnom, spray 0.002% active ingredient, inoculated two days after application, assessed after 4 days incubation
Experimental: Action Against Botryts cinerea/tomato (Botrytis on Tomatoes)
4 week old tomato plants cv. […] Two days after application tomato plants are inoculated by spraying a spore suspension (1×10^5 conidia/ml) on the test plants. After an incubation period of 4 days at 20° C. and 95% r. h. in a growth chamber the disease incidence is assessed.

Boftis cinerea = experiment: Action against Boftis cinerea/grape (Botrytis on grapes); assay type: in vivo; details: grape seedlings cv. Gutedel, spray 0.002% active ingredient, inoculated two days after application, assessed after 4 days incubation
Experimental: Action Against Boftis cinerea/grape (Botrytis on Grapes)
5 week old grape seedlings cv. […] Two days after application grape plants are inoculated by spraying a spore suspension (1×10^6 conidia/ml) on the test plants. After an incubation period of 4 days at 21° C. and 95% r. h. in a greenhouse the disease incidence is assessed.

Etysiphe graminis = experiment: Action against Etysiphe graminis/barley (powdery mildew on barley); assay type: in vivo; details: barley plants cv. Express, spray 0.02% active ingredient, inoculated one day after application, assessed after 6 days incubation
Experimental: Action Against Etysiphe graminis/barley (Powdery Mildew on Barley)
1 week old barley plants cv. […] One day after application barley plants are inoculated by shaking powdery mildew infected plants above the test plants. After an incubation period of 6 days at 20° C./18° C. (day/night) and 60% r. h. in a greenhouse the disease incidence is assessed.

Septoria nodorum = experiment: Action against Septoria nodorum/wheat (Septoria leaf spot on wheat); assay type: in vivo; details: wheat plants cv. Arina, spray 0.02% active ingredient, inoculated one day after application, assessed 11 days after inoculation
Experimental: Action Against Septoria nodorum/wheat (Septoria Leaf Spot on Wheat)
(§1) 1 week old wheat plants cv. […] One day after application wheat plants are inoculated by spraying a spore suspension (5×10^5 conidia/ml) on the test plants. After an incubation period of 1 day at 20° C. and 95% r. h. plants are kept for 10 days at 20° C. and 60% r.h. in a greenhouse. The disease incidence is assessed 11 days after inoculation.

Podosphaera leucotricha = experiment: Action against Podosphaera leucotricha/apple (powdery mildew on apple); assay type: in vivo; details: apple seedlings cv. McIntosh, spray 0.002% active ingredient, inoculated one day after application, assessed after 12 days incubation
Experimental: Action Against Podosphaera leucotricha/apple (Powdery Mildew on Apple)
5 week old apple seedlings cv. […] One day after application apple plants are inoculated by shaking plants infected with apple powdery mildew above the test plants. After an incubation period of 12 days at 22° C. and 60% r. h. under a light regime of 14/10 h (light/dark) the disease incidence is assessed.

Botryis cinerea = experiment: Action against Botryis cinerea/apple (Botrytis on apple fruits); assay type: in vivo, B. cinerea; details: apple fruit cv. Golden Delicious, 30 μl droplets 0.002% active ingredient in drilled holes, inoculated two hours after application, assessed after 7 days
Experimental: Action Against Botryis cinerea/apple (Botrytis on Apple Fruits)
In an apple fruit cv. […] Two hours after application 50 μl of a spore suspension of B. cinerea (4×10^5 conidia/ml) are pipetted on the application sites. After an incubation period of 7 days at 22° C. in a growth chamber the disease incidence is assessed.

Venturia Inaequalis = experiment: Action against Venturia inaequalis/apple (scab on apple); assay type: in vivo; details: apple seedlings cv. McIntosh, spray 0.02% active ingredient, inoculated one day after application, assessed after 4+4+4 days incubation
Experimental: Action Against Venturia Inaequalis/apple (Scab on Apple)
4 week old apple seedlings cv. […] One day after application apple plants are inoculated by spraying a spore suspension (4×10^5 conidia/ml) on the test plants. After an incubation period of 4 days at 21° C. and 95% r. h. the plants are placed for 4 days at 21° C. and 60% r. h. in a greenhouse. After another 4 day incubation period at 21° C. and 95% r. h. the disease incidence is assessed.

Puenophora teres = experiment: Action against Puenophora teres/barley (net blotch on barley); assay type: in vivo; details: barley plants cv. Express, spray 0.002% active ingredient, inoculated two days after application, assessed 4 days after inoculation
Experimental: Action Against Puenophora teres/barley (Net Blotch on Barley)
as §1, with “barley” for “wheat”, “Two days” for “One day”, “(3×10^4” for “(5×10^5”, “2 days” for “1 day”, “2” for “10”, “4” for “11”

Measured: efficacy (disease incidence)

Cn1cc(C(=O)Nc2ccccc2-c2ccc(F)cc2)c(C(F)(F)C(F)(F)F)c1 [Compound 1.192]
strong efficacy: Botryts cinerea | Boftis cinerea | Etysiphe graminis | Septoria nodorum | Podosphaera leucotricha | Botryis cinerea | Venturia Inaequalis | Puenophora teres

Cc1cn(C)cc1C(=O)Nc1ccsc1-c1ccc(Cl)cc1 [Compound 2.23]
strong efficacy: Botryts cinerea | Boftis cinerea | Etysiphe graminis | Septoria nodorum | Podosphaera leucotricha | Botryis cinerea | Venturia Inaequalis | Puenophora teres

Cn1cc(C(=O)Nc2ccsc2-c2ccc(Cl)cc2)c(C(F)(F)C(F)(F)F)c1 [Compound 2.190]
strong efficacy: Botryts cinerea | Boftis cinerea | Etysiphe graminis | Septoria nodorum | Podosphaera leucotricha | Botryis cinerea | Venturia Inaequalis | Puenophora teres

Cc1cn(C)cc1C(=O)Nc1snnc1-c1ccc(F)cc1 [Compound 4.12]
strong efficacy: Botryts cinerea | Boftis cinerea | Etysiphe graminis | Septoria nodorum | Podosphaera leucotricha | Botryis cinerea | Venturia Inaequalis | Puenophora teres

Cn1cc(C(=O)Nc2ccccc2-c2ccc(Cl)cc2)c(C(F)F)c1 [Compound 1.144]
strong efficacy: Botryts cinerea | Boftis cinerea | Etysiphe graminis | Septoria nodorum | Podosphaera leucotricha | Botryis cinerea | Venturia Inaequalis | Puenophora teres

Cc1cn(C)cc1C(=O)Nc1cnccc1-c1ccc(Cl)cc1 [Compound 6.10]
strong efficacy: Botryts cinerea | Boftis cinerea | Etysiphe graminis | Septoria nodorum | Podosphaera leucotricha | Botryis cinerea | Venturia Inaequalis | Puenophora teres

Cc1cn(C)cc1C(=O)Nc1cnccc1-c1ccc(F)cc1 [Compound 6.12]
strong efficacy: Botryts cinerea | Boftis cinerea | Etysiphe graminis | Septoria nodorum | Podosphaera leucotricha | Botryis cinerea | Venturia Inaequalis | Puenophora teres

Cn1cc(C(=O)Nc2cnccc2-c2ccc(Cl)cc2)c(C2CC2)c1 [Compound 6.49]
strong efficacy: Botryts cinerea | Boftis cinerea | Etysiphe graminis | Septoria nodorum | Podosphaera leucotricha | Botryis cinerea | Venturia Inaequalis | Puenophora teres

CCc1cn(C)cc1C(=O)Nc1ccccc1-c1ccc(F)cc1 [Compound 1.261]
strong efficacy: Botryts cinerea | Boftis cinerea | Etysiphe graminis | Septoria nodorum | Podosphaera leucotricha | Botryis cinerea | Venturia Inaequalis | Puenophora teres

Cn1cc(C(=O)Nc2ccccc2C2CCCCC2)c(C(F)(F)C(F)(F)F)c1 [Compound 1.187]
strong efficacy: Botryts cinerea | Boftis cinerea | Etysiphe graminis | Septoria nodorum | Podosphaera leucotricha | Botryis cinerea | Venturia Inaequalis | Puenophora teres

CCc1cn(C)cc1C(=O)Nc1ccccc1-c1ccc(Cl)cc1 [Compound 1.260]
strong efficacy: Botryts cinerea | Boftis cinerea | Etysiphe graminis | Septoria nodorum | Podosphaera leucotricha | Botryis cinerea | Venturia Inaequalis | Puenophora teres

CCc1cn(CC)cc1C(=O)Nc1ccccc1-c1ccc(Cl)cc1 [Compound 1.265]
strong efficacy: Botryts cinerea | Boftis cinerea | Etysiphe graminis | Septoria nodorum | Podosphaera leucotricha | Botryis cinerea | Venturia Inaequalis | Puenophora teres

CC(C)c1cn(C)cc1C(=O)Nc1ccccc1-c1ccc(F)cc1 [Compound 1.269]
strong efficacy: Botryts cinerea | Boftis cinerea | Etysiphe graminis | Septoria nodorum | Podosphaera leucotricha | Botryis cinerea | Venturia Inaequalis | Puenophora teres

Cn1cc(C(=O)Nc2ccccc2C2CCCCC2)c(C2CC2)c1 [Compound 1.206]
strong efficacy: Botryts cinerea | Boftis cinerea | Etysiphe graminis | Septoria nodorum | Podosphaera leucotricha | Botryis cinerea | Venturia Inaequalis | Puenophora teres

CCn1cc(C(=O)Nc2ccccc2-c2ccc(Cl)cc2)c(C(C)C)c1 [Compound 1.271]
strong efficacy: Botryts cinerea | Boftis cinerea | Etysiphe graminis | Septoria nodorum | Podosphaera leucotricha | Botryis cinerea | Venturia Inaequalis | Puenophora teres
